Reference: the NIST ThermoML archive (doi:10.1016/j.jct.2011.04.010)

Key:
[1] = xn = mol fraction of the nth substance listed; conditions: 101 kPa, Liquid; for speed of sound: 298.15 K, Ecolab MPFU speed of sound meter; for mass density: Vibrating tube method
[2] = molar heat capacity at constant pressure; xn = mol fraction of the nth substance listed; conditions: 298.15 K, 101 kPa, Liquid, Flow calorimetry

COCCO [2-methoxyethan-1-ol] + CC#N
Conditions	molar heat capacity at constant pressure, [2] [J/K/mol]	speed of sound, [1] [m/s]
x1 = 0.0504	97.12	–
x1 = 0.09833	–	1281.3
x1 = 0.1006	101.84	–
x1 = 0.1504	106.53	–
x1 = 0.1641	107.81	–
x1 = 0.1936	–	1285.5
x1 = 0.1955	110.77	–
x1 = 0.2	111.19	–
x1 = 0.2999	–	1292.4
x1 = 0.3003	120.53	–
x1 = 0.3989	–	1300.3
x1 = 0.4043	129.87	–
x1 = 0.45	133.82	–
x1 = 0.5007	138.04	–
x1 = 0.5042	–	1309.5
x1 = 0.6021	146.04	–
x1 = 0.605	–	1318.2
x1 = 0.6287	148.03	–
x1 = 0.6497	149.58	–
x1 = 0.7347	–	1328.4
x1 = 0.7453	156.4	–
x1 = 0.7493	156.67	–
x1 = 0.8295	–	1334.3
x1 = 0.9064	167.3	–
x1 = 0.9177	–	1338.1
x1 = 0.9498	170.12	–
x1 = 1	173.25	1339.7

mass density [kg/m3], [1]
Conditions	308.15 K	318.15 K
x1 = 0.00977	–	758.593
x1 = 0.00998	768.618	–
x1 = 0.02023	–	761.593
x1 = 0.02137	771.87	–
x1 = 0.0304	–	764.483
x1 = 0.03278	775.071	–
x1 = 0.04029	–	767.262
x1 = 0.04058	777.238	–
x1 = 0.04893	–	769.671
x1 = 0.0505	779.979	–
x1 = 0.05932	–	772.54
x1 = 0.06681	–	774.593
x1 = 0.06827	784.813	–
x1 = 0.07039	785.413	–
x1 = 0.07541	786.728	–
x1 = 0.07969	–	778.086
x1 = 0.091	–	781.124
x1 = 0.09332	791.503	–
x1 = 0.1015	–	783.904
x1 = 0.1019	793.744	–
x1 = 0.1512	806.368	–
x1 = 0.1516	–	796.793
x1 = 0.195	817.055	807.486
x1 = 0.2495	829.827	–
x1 = 0.2503	–	820.48
x1 = 0.2981	840.655	–
x1 = 0.304	–	832.469
x1 = 0.4001	861.695	–
x1 = 0.4012	–	852.641
x1 = 0.5006	880.458	–
x1 = 0.5007	–	871.365
x1 = 0.6017	897.597	–
x1 = 0.6038	–	888.921
x1 = 0.7031	–	904.33
x1 = 0.7041	913.484	–
x1 = 0.8014	–	918.191
x1 = 0.8024	927.171	–
x1 = 0.9034	–	931.153
x1 = 0.9066	940.325	–
x1 = 0.9102	940.846	–
x1 = 0.9133	–	932.346
x1 = 0.9213	942.098	–
x1 = 0.9235	–	933.569
x1 = 0.9316	943.319	–
x1 = 0.935	–	934.916
x1 = 0.9417	944.49	–
x1 = 0.9434	–	935.911
x1 = 0.9524	–	936.96
x1 = 0.9528	945.766	–
x1 = 0.9632	946.944	–
x1 = 0.9635	–	938.217
x1 = 0.9702	947.731	–
x1 = 0.9723	–	939.208
x1 = 0.9814	948.974	940.219
x1 = 0.9929	–	941.484
x1 = 0.9931	950.261	–
x1 = 1	951.01	942.253

CC#N [acetonitrile] + COCCO
Conditions	speed of sound [m/s]
[1], x2 = 0	1279.6

[1], x2 = 0
Conditions	mass density [kg/m3]
308.15 K	765.735
318.15 K	755.763
